In test [1] the test system is HCT-116. Description: Growth inhibition of human HCT116 cells overexpressing PI3Kalpha after 48 hrs by MTT assay. The class given is functional, cell-based. The conditions noted are these: HCT-116, 48 h. For orientation: Formazan colour is commonly taken as a measure of viable cells.
In test [2] the test system is HCT-116. Description: Growth inhibition of human HCT116 cells overexpressing PI3Kalpha H1047R mutant after 48 hrs by MTT assay. As to conditions: HCT-116, 48 h. The format is functional, cell-based.
Test [3] concerns the target Phosphatidylinositol 4,5-bisphosphate 3-kinase catalytic subunit alpha isoform (Homo sapiens) (UniProt P42336). Description: Inhibition of PI3Kalpha in human HCT116 cells using [32P]ATP at 25 uM after 10 mins. The class given is cell-based. The conditions noted are these: HCT-116.
Test [4] has as its system Phosphatidylinositol 4,5-bisphosphate 3-kinase catalytic subunit alpha isoform (Homo sapiens), P42336 [H1047R]. Description: Inhibition of PI3Kalpha H1047R mutant in human HCT116 cells using [32P]ATP at 25 uM after 10 mins. The format is cell-based. The conditions noted are these: HCT-116.
Test [5] has as its target Phosphatidylinositol 4,5-bisphosphate 3-kinase catalytic subunit alpha isoform (Homo sapiens) (UniProt P42336). The experiment in a line: Inhibition of PI3Kalpha in human HCT116 cells assessed as inhibition of Akt Ser473 phosphorylation at 25 uM by immunoblot analysis. The class given is cell-based. The conditions noted are these: HCT-116. For orientation: Immunoblotting shows a protein as a band on a membrane.

Test [6] relates to Phosphatidylinositol 4,5-bisphosphate 3-kinase catalytic subunit alpha isoform (Homo sapiens), P42336 [H1047R]. Description: Inhibition of PI3Kalpha H1047R mutant in human HCT116 cells assessed as inhibition of Akt Ser473 phosphorylation at 25 uM by immunoblot analysis. The format is cell-based. As to conditions: HCT-116.
Test [7] concerns HCT-116. Description: Inhibition of Akt expression in human HCT116 cells at 10 uM by immunoblot analysis. The format is functional, cell-based.
Test [8] deals with HCT-116. Description: Induction of apoptosis in human HCT116 cells assessed DNA fragmentation at 25 uM after 48 hrs by ELISA relative to control. The class given is functional. On the technique in general: In an ELISA, binding on a coated surface is turned into a signal by an enzyme label.
Test [9] concerns HCT-116. Description: Induction of apoptosis in human HCT116 cells overexpressing PI3Kalpha assessed DNA fragmentation at 25 uM after 48 hrs by ELISA relative to control. The format is functional.
The test system of test [10] is HCT-116. Description: Induction of apoptosis in human HCT116 cells overexpressing PI3Kalpha H1047R mutant assessed DNA fragmentation at 25 uM after 48 hrs by ELISA relative to control. The class given is functional.
The test system of test [11] is HCT-116. Description: cells. The conditions noted are these: Homo sapiens, HCT-116, 48 h.
Description: Growth inhibition of human HCT116 cells after 48 hrs by MTT assay
The target in test [12] is Phosphatidylinositol 4,5-bisphosphate 3-kinase catalytic subunit alpha isoform (Homo sapiens) (UniProt P42336). The experiment in a line: Inhibition of PI3Kalpha in human HCT116 cells using [32P]ATP at 10 uM after 10 mins. The format is cell-based. As to conditions: HCT-116.
Test [13] relates to Phosphatidylinositol 4,5-bisphosphate 3-kinase catalytic subunit alpha isoform (Homo sapiens), P42336 [H1047R]. The experiment in a line: Inhibition of PI3Kalpha H1047R mutant in human HCT116 cells using [32P]ATP at 10 uM after 10 mins. The format is cell-based. The conditions noted are these: HCT-116.
The target in test [14] is Phosphatidylinositol 4,5-bisphosphate 3-kinase catalytic subunit alpha isoform (Homo sapiens) (UniProt P42336). The experiment in a line: Inhibition of PI3Kalpha in human HCT116 cells assessed as inhibition of Akt Ser473 phosphorylation at 10 uM by immunoblot analysis. The format is cell-based. As to conditions: HCT-116.
For test [15], the system named is Phosphatidylinositol 4,5-bisphosphate 3-kinase catalytic subunit alpha isoform (Homo sapiens), P42336 [H1047R]. Description: Inhibition of PI3Kalpha H1047R mutant in human HCT116 cells assessed as inhibition of Akt Ser473 phosphorylation at 10 uM by immunoblot analysis. The format is cell-based. The conditions noted are these: HCT-116.

The source made the active and inactive calls. The rule behind the calls is not given here.

For orientation: IC50 means the concentration needed to halve the response being measured. A higher IC50 goes with weaker potency.

Phosphatidylinositol 4,5-bisphosphate 3-kinase catalytic subunit alpha isoform (Homo sapiens), sequence (P42336 whole entry, canonical isoform): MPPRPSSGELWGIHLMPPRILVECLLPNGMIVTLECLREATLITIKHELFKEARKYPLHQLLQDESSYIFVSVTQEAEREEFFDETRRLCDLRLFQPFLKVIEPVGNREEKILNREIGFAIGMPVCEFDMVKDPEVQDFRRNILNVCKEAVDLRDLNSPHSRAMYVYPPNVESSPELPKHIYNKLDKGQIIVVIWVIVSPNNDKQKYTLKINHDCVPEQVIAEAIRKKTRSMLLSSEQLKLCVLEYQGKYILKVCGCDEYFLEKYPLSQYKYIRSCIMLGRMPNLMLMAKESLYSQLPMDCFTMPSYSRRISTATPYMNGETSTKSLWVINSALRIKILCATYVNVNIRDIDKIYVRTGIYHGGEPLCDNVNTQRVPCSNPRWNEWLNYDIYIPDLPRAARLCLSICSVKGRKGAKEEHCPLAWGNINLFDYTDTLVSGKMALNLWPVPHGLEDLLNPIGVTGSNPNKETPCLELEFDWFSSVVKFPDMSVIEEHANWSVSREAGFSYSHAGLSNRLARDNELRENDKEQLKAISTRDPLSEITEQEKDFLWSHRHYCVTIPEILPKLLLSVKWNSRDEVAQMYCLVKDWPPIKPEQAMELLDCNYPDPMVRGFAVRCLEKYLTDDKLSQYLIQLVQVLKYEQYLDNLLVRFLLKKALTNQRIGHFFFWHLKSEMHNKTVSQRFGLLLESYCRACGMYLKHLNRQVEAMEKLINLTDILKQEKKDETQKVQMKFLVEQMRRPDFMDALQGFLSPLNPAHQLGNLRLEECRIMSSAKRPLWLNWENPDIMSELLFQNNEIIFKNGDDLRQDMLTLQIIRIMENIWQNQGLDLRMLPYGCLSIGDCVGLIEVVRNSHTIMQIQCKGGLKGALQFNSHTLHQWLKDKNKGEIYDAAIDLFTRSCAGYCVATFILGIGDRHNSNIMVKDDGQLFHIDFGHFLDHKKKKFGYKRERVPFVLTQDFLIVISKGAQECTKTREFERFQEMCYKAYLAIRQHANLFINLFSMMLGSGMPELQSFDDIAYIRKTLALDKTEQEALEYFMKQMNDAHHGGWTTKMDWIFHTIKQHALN
Phosphatidylinositol 4,5-bisphosphate 3-kinase catalytic subunit alpha isoform (Homo sapiens), P42336 [H1047R], sequence (P42336 whole entry H1047R, canonical isoform): as the sequence (P42336 whole entry, canonical isoform) above, with H1047R counted along it

For the molecule `O=C(NCc1ccccc1)c1c(O)nc2ccccc2c1O`, the half-inhibitory concentration (IC50) was 1.1 µM in test [1], 0.73 µM in [2] and 1.8 µM in [11]. Besides, the inhibition entry in [3], in [4], in test [5] and in test [6] was “Active” in each case. Moreover, the inhibition entry in test [7] was “inactive”. For the same molecule, the “fold change (FC)” value in test [8] is 2.9; in test [9], 3.2; in test [10] it was 11.
For the molecule `COc1ccc(C(=O)c2ccccc2C(=O)O)c(O)c1`, the IC50 is 31 µM in test [1], 18 µM in test [2] and 13 µM in test [11]. For the same molecule, the inhibition entry in test [3], in test [4], in [5] and in test [6] was “Active” throughout. Also, the inhibition entry in test [7] is “inactive”. Further, the “fold change (FC)” value in test [8] was found to be 1.8; in test [9], 1.3; in test [10] it was 3.
Take `Cc1cc(O)c2c(c1)C(=O)c1cc(O)cc(O)c1C2=O` [EMODIN]: the IC50 in [1] worked out at 5.3 µM; in [2], 3.8 µM; in test [11], 6.2 µM. The inhibition entry in test [12], in test [13], in test [14], in test [15] and in test [7] was “Active” each time. Also, the “fold change (FC)” value is 8.6 in [8], 12 in [9] and 13 in test [10].
With `O=c1cc(N2CCOCC2)oc2c(-c3ccccc3)cccc12` [LY-294002], the inhibition entry in test [12], in test [13], in test [14] and in test [15] was “Active” throughout. Also, the inhibition result in [7] was “inactive”. Further, the results for the “fold change (FC)” value in test [8], in test [9] and in test [10] were 3.8, 8.5 and 8.6, respectively.
Take `O=c1c(O)c(-c2cc(O)c(O)c(O)c2)oc2cc(O)cc(O)c12` [MYRICETIN]: the inhibition result in test [3], in test [4], in test [5] and in [6] was “Active” each time. For the same molecule, the inhibition result in test [7] is “inactive”.
With `O=c1c(O)c(-c2ccc(O)c(O)c2)oc2cc(O)cc(O)c12` [QUERCETIN], the results for the IC50 in test [1], in [2] and in test [11] were 23 µM, 5.7 µM and 6.7 µM, respectively. Moreover, the inhibition result in test [3], in [4], in test [5] and in test [6] was “Active” throughout. For the same molecule, the inhibition result in [7] was “inactive”. In addition, the “fold change (FC)” value in test [8] stood at 1; in [9], 2.5; in test [10], 4.

Values taken from ChEMBL document CHEMBL1938320, “Biological evaluation and docking studies of recently identified inhibitors of phosphoinositide-3-kinases” (Bioorg Med Chem Lett, 2012).
